Data published in US20260262647A1, “Synergistic Compositions Containing Guanidine” (Thor GmbH, priority 2023, published 2026).
Where “and” joins values, the source holds several entries; their conditions need not be identical. Equal values may be shown once.

System: Pseudomonas spec. DSM 115322
Assay: Minimum inhibitory concentrations and synergy index in Müller-Hinton broth
Assay type: cell-based
Procedure: Test organisms used were Gram-negative bacterial species from the group of pseudomonads, Pseudomonas putida DSM 115323 and Pseudomonas spec. DSM 115322. For this purpose, mixtures with different concentrations of the respective active substances were prepared and tested for their effect on the pseudomonads. The test was run in Müller-Hinton broth MHB with a cell density of 10^6 microbes per ml. When organic acids are used as a combination partner with the guanidine, MHB was adjusted to pH 5.5.
The incubation was run in microplates at 30° C. for 48 hours. After 48 hours, the batches were evaluated for turbidity resulting from growth, and optical density was additionally determined photometrically. In this way, the minimum inhibitory concentrations (MICs) of the two actives were determined individually and in combination.
The calculation was done according to the standard method of F. C. Kull et al., Applied Microbiology, vol. 9 (1961), p. 538.
This involves calculating the synergy index (SI) by the following formula:
[formula] • Qa=concentration of component A in the A+B mixture • QA=concentration of component A as the sole biocide • Qb=concentration of component B in the A+B mixture • QB=concentration of component B as the sole biocide
If the synergy index is greater than 1, this means that there is antagonism. If the synergy index assumes the value 1, this means that the effect of the two biocides/compounds is additive. If the synergy index assumes a value of less than 1, this means that there is synergism between the two biocides/compounds.

[1] = mixture with guanidine, Qa, 48 hours at 30° C.

OCCCc1ccccc1
Synergy index Qa/QA + Qb/QB (guanidine and phenylpropanol, Qa): 1.00 | QB: Concentration of phenylpropanol as the sole agent that shows an endpoint (phenylpropanol alone, 48 hours at 30° C.): 2000 ppm

CCC(N)(CO)CO [AEPD, 2-aminoethylpropane-1,3-diol]
QB: Concentration of AEPD as the sole agent that shows an endpoint (AEPD alone, 48 hours at 30° C.): 5000 ppm | Synergy index Qa/QA + Qb/QB (guanidine and AEPD, Qa): 1.00

CC(C)(N)CO [AMP, 2-amino-2-methyl-1-propanol]
QB: Concentration of AMP as the sole agent that shows an endpoint (AMP alone, 48 hours at 30° C.): 2500 ppm | Synergy index Qa/QA + Qb/QB (guanidine and AMP, Qa): 1.00

CCCCn1sc2ccccc2c1=O [BBIT, N-butyl-1,2-benzisothiazolin-3-one]
QB: Concentration of BBIT as the sole agent that shows an endpoint (BBIT alone, 48 hours at 30° C.): 400 ppm | Synergy index Qa/QA + Qb/QB (guanidine and BBIT, Qa): 1.00

N#CCCC(Br)(C#N)CBr (centres unmarked) [DBDCB, dibromodicyanobutane]
QB: Concentration of DBDCB as the sole agent that shows an endpoint (DBDCB alone, 48 hours at 30° C.): 250 ppm | Synergy index Qa/QA + Qb/QB (guanidine and DBDCB, Qa): 1.00

N#CC(Br)(Br)C(N)=O [DBNPA, dibromonitrilopropionamide]
QB: Concentration of DBNPA as the sole agent that shows an endpoint (DBNPA alone, 48 hours at 30° C.): 25 ppm | Synergy index Qa/QA + Qb/QB (guanidine and DBNPA, Qa): 1.00

O=C(O)CN(CCN(CC(=O)O)CC(=O)O)CC(=O)O [EDTA, ethylenediaminetetraacetic acid]
QB: Concentration of EDTA as the sole agent that shows an endpoint (EDTA alone, 48 hours at 30° C.): 300 ppm | Synergy index Qa/QA + Qb/QB (guanidine and EDTA, Qa): 1.00 | Qb (EDTA): Concentration of EDTA in the mixture that shows an endpoint [1]: 250 ppm and 200 ppm and 175 ppm and 125 ppm

CCCCC(CC)COCC(O)CO (centres unmarked) [EHG, ethylhexylglycerol]
QB: Concentration of EHG as the sole agent that shows an endpoint (EHG alone, 48 hours at 30° C.): 2000 ppm | Synergy index Qa/QA + Qb/QB (guanidine and EHG, Qa): 1.00

CC(O)(P(=O)(O)O)P(=O)(O)O [HEDP, (1-hydroxyethylidene)bisphosphonic acid]
QB: Concentration of HEDP as the sole agent that shows an endpoint (HEDP alone, 48 hours at 30° C.): 300 ppm | Synergy index Qa/QA + Qb/QB (guanidine and HEDP, Qa): 1.00 | Qb (HEDP): Concentration of HEDP in the mixture that shows an endpoint [1]: 1000 ppm

Cn1sc2ccccc2c1=O [MBIT, N-methyl-1,2-benzisothiazolin-3-one]
QB: Concentration of MBIT as the sole agent that shows an endpoint (MBIT alone, 48 hours at 30° C.): 300 ppm | Synergy index Qa/QA + Qb/QB (guanidine and MBIT, Qa): 1.00

NCCO [MEA, monoethanolamine]
QB: Concentration of MEA as the sole agent that shows an endpoint (MEA alone, 48 hours at 30° C.): 2000 ppm | Synergy index Qa/QA + Qb/QB (guanidine and MEA, Qa): 1.00

Cn1sccc1=O [MIT, 2-methyl-4-isothiazolin-3-one]
QB: Concentration of MIT as the sole agent that shows an endpoint (MIT alone, 48 hours at 30° C.): 75 ppm | Synergy index Qa/QA + Qb/QB (guanidine and MIT, Qa): 1.00

CCCCCCCCn1sccc1=O [OIT, octylisothiazolinone]
QB: Concentration of OIT as the sole agent that shows an endpoint (OIT alone, 48 hours at 30° C.): 250 ppm | Synergy index Qa/QA + Qb/QB (guanidine and OIT, Qa): 1.00

O=C(O)c1ccccc1 [benzoic acid]
QB: Concentration of benzoic acid as the sole agent that shows an endpoint (benzoic acid (added as sodium benzoate) alone, MHB adjusted to pH 5.5, 48 hours at 30° C.): 1680 ppm | Synergy index Qa/QA + Qb/QB (guanidine and benzoic acid, Qa, pH 5.5): 1.00

OCc1ccccc1 [benzyl alcohol]
QB: Concentration of benzyl alcohol as the sole agent that shows an endpoint (benzyl alcohol alone, 48 hours at 30° C.): 2000 ppm | Synergy index Qa/QA + Qb/QB (guanidine and benzyl alcohol, Qa): 1.00

O=[N+]([O-])C(Br)(CO)CO [bronopol]
QB: Concentration of bronopol as the sole agent that shows an endpoint (bronopol alone, 48 hours at 30° C.): 25 ppm | Synergy index Qa/QA + Qb/QB (guanidine and bronopol, Qa): 1.00

O=C(O)CC(O)(CC(=O)O)C(=O)O [citric acid]
QB: Concentration of citric acid as the sole agent that shows an endpoint (citric acid (added as trisodium citrate) alone, MHB adjusted to pH 5.5, 48 hours at 30° C.): 51293 ppm

CCCCCC(O)CO (centres unmarked) [heptane-1,2-diol]
Synergy index Qa/QA + Qb/QB (guanidine and heptane-1,2-diol, Qa): 1.00 | QB: Concentration of heptane-1,2-diol as the sole agent that shows an endpoint (heptane-1,2-diol alone, 48 hours at 30° C.): 3750 ppm

CCCCC(O)CO (centres unmarked) [hexane-1,2-diol]
Synergy index Qa/QA + Qb/QB (guanidine and hexane-1,2-diol, Qa): 1.00 | QB: Concentration of hexane-1,2-diol as the sole agent that shows an endpoint (hexane-1,2-diol alone, 48 hours at 30° C.): 7500 ppm

CCCCCCOCC(O)CO (centres unmarked) [hexylglycerol]
Synergy index Qa/QA + Qb/QB (guanidine and hexylglycerol, Qa): 1.00 | QB: Concentration of hexylglycerol as the sole agent that shows an endpoint (hexylglycerol alone, 48 hours at 30° C.): 2000 ppm

CC(C)O [isopropanol]
Synergy index Qa/QA + Qb/QB (guanidine and isopropanol, Qa): 1.00 | QB: Concentration of isopropanol as the sole agent that shows an endpoint (isopropanol alone, 48 hours at 30° C.): 60000 ppm

CC(O)C(=O)O (centres unmarked) [lactic acid]
Synergy index Qa/QA + Qb/QB (guanidine and lactic acid, Qa, pH 5.5): 1.00 | QB: Concentration of lactic acid as the sole agent that shows an endpoint (lactic acid (added as sodium L-lactate) alone, MHB adjusted to pH 5.5, 48 hours at 30° C.): 15896 ppm

Oc1ccccc1-c1ccccc1 [oPP, o-phenylphenol]
Synergy index Qa/QA + Qb/QB (guanidine and oPP, Qa): 1.00 | QB: Concentration of oPP as the sole agent that shows an endpoint (oPP alone, 48 hours at 30° C.): 750 ppm

CCCCCCC(O)CO (centres unmarked) [octane-1,2-diol]
Synergy index Qa/QA + Qb/QB (guanidine and octane-1,2-diol, Qa): 1.00 | QB: Concentration of octane-1,2-diol as the sole agent that shows an endpoint (octane-1,2-diol alone, 48 hours at 30° C.): 2000 ppm

CCCC(O)CO (centres unmarked) [pentane-1,2-diol]
Synergy index Qa/QA + Qb/QB (guanidine and pentane-1,2-diol, Qa): 1.00 | QB: Concentration of pentane-1,2-diol as the sole agent that shows an endpoint (pentane-1,2-diol alone, 48 hours at 30° C.): 10000 ppm

OCCc1ccccc1 [phenethyl alcohol]
Synergy index Qa/QA + Qb/QB (guanidine and phenethyl alcohol, Qa): 1.00 | QB: Concentration of phenethyl alcohol as the sole agent that shows an endpoint (phenethyl alcohol alone, 48 hours at 30° C.): 2500 ppm

[O-][n+]1ccccc1S [pyrithione]
Synergy index Qa/QA + Qb/QB (guanidine and pyrithione, Qa): 1.00 | QB: Concentration of pyrithione as the sole agent that shows an endpoint (pyrithione (added as sodium pyrithione) alone, 48 hours at 30° C.): 127 ppm

O=C(O)c1ccccc1O [salicylic acid]
Synergy index Qa/QA + Qb/QB (guanidine and salicylic acid, Qa, pH 5.5): 1.00 | QB: Concentration of salicylic acid as the sole agent that shows an endpoint (salicylic acid (added as sodium salicyate) alone, MHB adjusted to pH 5.5, 48 hours at 30° C.): 1713 ppm

C/C=C/C=C/C(=O)O [sorbic acid]
Synergy index Qa/QA + Qb/QB (guanidine and sorbic acid, Qa, pH 5.5): 1.00 | QB: Concentration of sorbic acid as the sole agent that shows an endpoint (sorbic acid (added as potassium sorbate) alone, MHB adjusted to pH 5.5, 48 hours at 30° C.): 1849 ppm
